{"source": "patent US20140088306A1", "about": "“RADIOACTIVE FLUORINE-LABELED QUINOXALINE COMPOUND” (Nihon Medi-Physics Co., Ltd., priority 2012, published 2014)", "key": {"[1]": {"assay": "In vivo radioactivity distribution experiment in normal mouse (Example 16)", "set-up": "species or system ddY mice", "conditions": "for Radioactivity Amount, Blood / Radioactivity Amount, Bone / Radioactivity Amount, Brain / Radioactivity Amount, Heart / Radioactivity Amount, Intestine / Radioactivity Amount, Kidney / Radioactivity Amount, Liver / Radioactivity Amount, Lung / Radioactivity Amount, Pancreas / Radioactivity Amount, Spleen / Radioactivity Amount, Stomach*: normal ddY mice, tail vein, average for 5 mice (SD)", "experimental": "An ethanol (10 μL)-containing saline solution of [^18F]D1 (25.8 kBq) or [^18F]D2 (48.2 kBq) (100 μL) was injected into the tail vein of ddY mice (male, 5-week old). Five mice were used for each group and sacrificed 2, 10, 30, and 60 minutes after administration to remove major organs. The blood and organs were weighed and further measured for radioactivity using a γ counter (Wallac 1470 Wizard 3, from Perkin-Elmer). The percent injected dose per organ was calculated by comparing tissue counts with suitably diluted aliquots of the injected material. The percent injected dose/g of each sample was calculated by comparing sample counts with the counts of the diluted initial dose."}, "[2]": {"test_system": "Aβ plaques", "assay": "In vitro autoradiography using postmortem brain section from Alzheimer's disease (Examples 14, 15)", "type": "binding, human (Alzheimer's disease patient)", "conditions": "brain section of Alzheimer's disease patient", "experimental": "A postmortem autopsy brain tissue of a patient with Alzheimer's disease identified by postmortem dissection was obtained from Graduate School of Medicine, Kyoto University. The presence and location of senile plaques in the section were confirmed by immunohistochemical staining using an anti-Aβ1-42 antibody. The section was incubated together with [^18F]D1 or [^18F]D2 (0.37 MBq/100 μL) at room temperature for 1 hour. The resultant was immersed in a 50 volume % ethanol aqueous solution (2 minutes×2) and washed with water (2 minutes×2). After drying, the section was exposed to BAS imaging plate (from Fujifilm Corporation) for 1.5 hours. The image of autoradiography was obtained using BAS5000 scanner system (from Fujifilm Corporation).\nA postmortem autopsy brain tissue of a patient with Alzheimer's disease identified by postmortem dissection was obtained from Graduate School of Medicine, Kyoto University, and serial sections […] of a paraffin-embedded brain tissue were used. First, they were each incubated with xylene (15 minutes×2), ethanol (1 minute×2), a 90 volume % ethanol aqueous solution (1 minute×2), and a 70 volume % ethanol aqueous solution (1 minute×1) in that order to perfectly perform deparaffinization, and then washed in water (2.5 minutes×2). Thereafter, for antibody recovery, the section was subjected to autoclave treatment for 15 minutes in 0.01 mol/L citrate buffer solution (pH 6.0). The resultant was incubated in PBS-Tween20 (5 minutes×2), and, for antibody recovery, incubated in a 90 volume % formic acid aqueous solution at room temperature for 5 minutes. The section was washed for 5 minutes with flowing tap water, and then incubated in PBS-Tween20 (2 minutes×1). The section was incubated with a mouse anti-Aβ1-42 monoclonal primary antibody (from Wako Pure Chemical Industries Ltd.) at room temperature overnight. The resultant was incubated in PBS-Tween20 (5 minutes×3) and then incubated together with biotin goat anti-mouse IgG (from Funakoshi Co., Ltd.) at room temperature for 1 hour. […]"}}, "note": "Entries after “also recorded” stand apart in the source; their conditions may differ."}
{"compound": "4-(6-(2-[^18F]Fluoroethoxy)quinoxalin-2-yl)-N-methylaniline [[^18F]D2]", "values": [{"measurement": "Radioactivity Amount, Blood", "setting": "[1]; 2 min. after", "value": "3.91 (0.22) % injected dose/g"}, {"measurement": "Radioactivity Amount, Blood", "setting": "[1]; 10 min. after", "value": "3.35 (0.43) % injected dose/g"}, {"measurement": "Radioactivity Amount, Blood", "setting": "[1]; 30 min. after", "value": "3.83 (0.18) % injected dose/g"}, {"measurement": "Radioactivity Amount, Blood", "setting": "[1]; 60 min. after", "value": "4.15 (0.31) % injected dose/g"}, {"measurement": "Radioactivity Amount, Bone", "setting": "[1]; 2 min. after", "value": "2.81 (0.52) % injected dose/g"}, {"measurement": "Radioactivity Amount, Bone", "setting": "[1]; 10 min. after", "value": "2.12 (0.11) % injected dose/g"}, {"measurement": "Radioactivity Amount, Bone", "setting": "[1]; 30 min. after", "value": "2.86 (0.45) % injected dose/g"}, {"measurement": "Radioactivity Amount, Bone", "setting": "[1]; 60 min. after", "value": "4.26 (0.29) % injected dose/g"}, {"measurement": "Radioactivity Amount, Brain", "setting": "[1]; 2 min. after", "value": "6.19 (0.30) % injected dose/g"}, {"measurement": "Radioactivity Amount, Brain", "setting": "[1]; 10 min. after", "value": "5.11 (0.28) % injected dose/g"}, {"measurement": "Radioactivity Amount, Brain", "setting": "[1]; 30 min. after", "value": "2.73 (0.16) % injected dose/g"}, {"measurement": "Radioactivity Amount, Brain", "setting": "[1]; 60 min. after", "value": "2.41 (0.12) % injected dose/g"}, {"measurement": "Radioactivity Amount, Heart", "setting": "[1]; 2 min. after", "value": "6.12 (0.45) % injected dose/g"}, {"measurement": "Radioactivity Amount, Heart", "setting": "[1]; 10 min. after", "value": "3.93 (0.40) % injected dose/g"}, {"measurement": "Radioactivity Amount, Heart", "setting": "[1]; 30 min. after", "value": "3.20 (0.32) % injected dose/g"}, {"measurement": "Radioactivity Amount, Heart", "setting": "[1]; 60 min. after", "value": "3.80 (0.22) % injected dose/g"}, {"measurement": "Radioactivity Amount, Intestine", "setting": "[1]; 2 min. after", "value": "3.40 (0.34) % injected dose/g"}, {"measurement": "Radioactivity Amount, Intestine", "setting": "[1]; 10 min. after", "value": "8.06 (0.95) % injected dose/g"}, {"measurement": "Radioactivity Amount, Intestine", "setting": "[1]; 30 min. after", "value": "12.13 (2.05) % injected dose/g"}, {"measurement": "Radioactivity Amount, Intestine", "setting": "[1]; 60 min. after", "value": "13.37 (1.03) % injected dose/g"}, {"measurement": "Radioactivity Amount, Kidney", "setting": "[1]; 2 min. after", "value": "9.86 (0.77) % injected dose/g"}, {"measurement": "Radioactivity Amount, Kidney", "setting": "[1]; 10 min. after", "value": "6.40 (0.62) % injected dose/g"}, {"measurement": "Radioactivity Amount, Kidney", "setting": "[1]; 30 min. after", "value": "4.14 (0.31) % injected dose/g"}, {"measurement": "Radioactivity Amount, Kidney", "setting": "[1]; 60 min. after", "value": "3.08 (0.21) % injected dose/g"}, {"measurement": "Radioactivity Amount, Liver", "setting": "[1]; 2 min. after", "value": "8.81 (1.00) % injected dose/g"}, {"measurement": "Radioactivity Amount, Liver", "setting": "[1]; 10 min. after", "value": "9.29 (0.40) % injected dose/g"}, {"measurement": "Radioactivity Amount, Liver", "setting": "[1]; 30 min. after", "value": "7.07 (0.19) % injected dose/g"}, {"measurement": "Radioactivity Amount, Liver", "setting": "[1]; 60 min. after", "value": "6.10 (0.41) % injected dose/g"}, {"measurement": "Radioactivity Amount, Lung", "setting": "[1]; 2 min. after", "value": "8.13 (1.13) % injected dose/g"}, {"measurement": "Radioactivity Amount, Lung", "setting": "[1]; 10 min. after", "value": "5.10(0.74) % injected dose/g"}, {"measurement": "Radioactivity Amount, Lung", "setting": "[1]; 30 min. after", "value": "3.94 (0.33) % injected dose/g"}, {"measurement": "Radioactivity Amount, Lung", "setting": "[1]; 60 min. after", "value": "3.92 (0.11) % injected dose/g"}, {"measurement": "Radioactivity Amount, Pancreas", "setting": "[1]; 2 min. after", "value": "6.47 (0.75) % injected dose/g"}, {"measurement": "Radioactivity Amount, Pancreas", "setting": "[1]; 10 min. after", "value": "3.88 (0.52) % injected dose/g"}, {"measurement": "Radioactivity Amount, Pancreas", "setting": "[1]; 30 min. after", "value": "2.72 (0.29) % injected dose/g"}, {"measurement": "Radioactivity Amount, Pancreas", "setting": "[1]; 60 min. after", "value": "2.64 (0.34) % injected dose/g"}, {"measurement": "Radioactivity Amount, Spleen", "setting": "[1]; 2 min. after", "value": "3.14 (0.55) % injected dose/g"}, {"measurement": "Radioactivity Amount, Spleen", "setting": "[1]; 10 min. after", "value": "3.76 (0.55) % injected dose/g"}, {"measurement": "Radioactivity Amount, Spleen", "setting": "[1]; 30 min. after", "value": "3.07 (0.32) % injected dose/g"}, {"measurement": "Radioactivity Amount, Spleen", "setting": "[1]; 60 min. after", "value": "2.99 (0.21) % injected dose/g"}, {"measurement": "Radioactivity Amount, Stomach*", "setting": "[1]; 2 min. after", "value": "1.32 (0.21) % injected dose per organ"}, {"measurement": "Radioactivity Amount, Stomach*", "setting": "[1]; 10 min. after", "value": "1.86 (0.38) % injected dose per organ"}, {"measurement": "Radioactivity Amount, Stomach*", "setting": "[1]; 30 min. after", "value": "2.44 (0.62) % injected dose per organ"}, {"measurement": "Radioactivity Amount, Stomach*", "setting": "[1]; 60 min. after", "value": "2.00 (0.76) % injected dose per organ"}, {"measurement": "binding to / background in the white matter by autoradiography", "setting": "[2]", "value": "low degree of background in the white matter"}, {"measurement": "labeling of Aβ plaques by autoradiography", "setting": "[2]; 0.37 MBq/100 μL, 1 hour", "value": "provided a strong marker for Aβ plaques; also recorded: corresponded to the results of antibody immunohistochemical staining"}]}
{"compound": "Nc1ccc(-c2cnc3cc(OCC[18F])ccc3n2)cc1", "note": "[[^18F]D1, 4-(6-(2-[^18F]Fluoroethoxy)quinoxalin-2-yl)aniline]", "values": [{"measurement": "Radioactivity Amount, Liver", "setting": "[1]; 2 min. after", "value": "5.30 (1.33) % injected dose/g"}, {"measurement": "Radioactivity Amount, Liver", "setting": "[1]; 10 min. after", "value": "6.58 (0.47) % injected dose/g"}, {"measurement": "Radioactivity Amount, Liver", "setting": "[1]; 30 min. after", "value": "4.90 (0.29) % injected dose/g"}, {"measurement": "Radioactivity Amount, Liver", "setting": "[1]; 60 min. after", "value": "4.88 (0.30) % injected dose/g"}, {"measurement": "amount of radioactivity in the brain", "setting": "[1]; mouse, in vivo", "value": "2.41-3.08 % ID/g"}, {"measurement": "binding to / background in the white matter by autoradiography", "setting": "[2]", "value": "high non-specific binding to the white matter"}]}
